In patent EP0410446A1, “(S)-5-hydroxydecanoic acid and its therapeutic composition” (MOCHIDA PHARMACEUTICAL CO., LTD., priority 1989, dated 1991):
Where two headings read alike, the source gives them in different places.

Key:
[1] = system: ATP regulated K⁺ channels; assay: Effect on ATP regulated K⁺ channels in guinea-pig cardiac cells (single channel recording, inside-out patch clamp, opening probability); type: cell-based; conditions: for Inhibition rate (%): Dose 3x10⁻⁴ M, single guinea-pig cardiac cells, inside-out patch, opening probability at 0 mV membrane potential
Description: According to the method described by Kakei, M., et al., ( J. Physiol., 363 441-462, 1985 ), single cardiac cells were prepared. Guinea-pigs were anesthetized with an intraperitoneally injection of pentobarbital sodium with 30 mg/kg and the chest was opened under artificial respiration. The aorta was cannulated in situ to perfuse the coronary arteries with Tyrode solution (NaCl 136.1, KCl 5.4, CaCl₂ 1.8, MgCl₂ 0.5, NaH₂PO₄ 0.33, glucose 5.5, N-2-hydroxyethylpiperazine-N′-2-ethanesulfonic acid (HEPES) 5.0, each in mM, and the pH was adjusted to 7.4 with NaOH), then the heart was dissected out and mounted on Langendorff apparatus to perfuse. After blood was washed out by Tyrode solution, the heart was perfused with the 100 ml of Ca²⁺-free Tyrode solution and then with Ca²⁺-free Tyrode solution containing 0.17 mg/ml collagenase for 5-20 minutes. Subsequently, the enzyme was washed out from the heart with the 100 ml of KB solution (taurine 10, oxalic acid 10, glutamic acid 80, KCl 25, KH₂PO₄ 10, HEPES 10, glucose 11, ethyleneglycolbis(β-aminoethylether)-N,N′-tetraacetic acid (EGTA) 0.5, each in mM, and the pH was adjusted to 7.4 with KOH) and the heart was stored in KB solution at 4°C for at least 1 hour. Before electrical recording, a part of ventricular muscle was dissected and was shaken in recording chamber (0.7 ml) filled with Tyrode solution to disperse each cells. The method of single channel electrical recording was essentially the same as described by Hamill, A., et al., (Pflugers Arch., 391 85-100, 1981 ). Glass electrodes were made from Pyrex glass capillaries by use of a puller (2 - 10 MΩ) and were heated to polish just before use. An electrode solution was KCl 5.4, NaCl 144.6, CaCl₂ 2, HEPES 5 (each in mM) and the pH was adjusted to 7.4 with NaOH. After dispersed cells sank and adhered to the bottom of recording chamber, high K⁺ solution (KCl 140, MgCl₂ 1.0, KH₂PO₄ 0.5, EGTA 1.0, HEPES 5.0, each in mM, and the pH was adjusted to 7.4 with KOH) was perfused at flow rate of 2 - 3 ml/minute. After established a high seal resistance (5 - 20 GΩ) obtained by attaching an electrode to a cell membrane and applying suction (0 - -50 cm H₂O), a channel current was detected by inside-out configuration by use of a patch clamp amplifier (8900, DAGAN) at a filter setting of 1 KHz. A channel current and a membrane potential were monitored by an oscilloscope and were recorded by a datarecorder. An opening probability, that is a ratio of channel opening period to recording period, were analyzed by using a p-CLAMP (AXON) at 0 mV of a membrane potential. Compounds were dissolved in high K⁺ solution to be perfused.

male ddY mice = type: in vivo; conditions: 1 g/kg, five male ddY mice, observed for one week
Excerpt: Five male ddY mice weighting about 25 g were orally administered once or intraperitoneally injected once with 1 g/kg of sodium (S)-5-hydroxydecanoate.

Row | SMILES | Inhibition rate (%) [1] [%] | activity on ATP regulated K⁺ channels (in words) ([1]; summary of table 1, 3x10⁻⁴ M) | inhibitory effect on ATP regulated K⁺ channels compared with racemate ([1]; comparison of the values in table 1, 3x10⁻⁴ M) | Acute toxicity (abnormality, death) (male ddY mice; intraperitoneally injected once) | Acute toxicity (abnormality, death) (male ddY mice; orally administered once)
1 | CCCCCC(O)CCCC(=O)[O-].[Na+] (racemic) [(R,S)-5-HD, Sodium 5-hydroxydecanoate] | 30 |  |  |  | 
2 | CCCCC[C@@H](O)CCCC(=O)[O-].[Na+] [(R)-5-HD, Sodium 5-hydroxydecanoate] | 10 | few activity |  |  | 
3 | CCCCC[C@H](O)CCCC(=O)[O-].[Na+] [(S)-5-HD, sodium (S)-5-hydroxydecanoate] | 69 |  | about twice as good as racemate | no abnormality occurred and no animal died | no abnormality occurred and no animal died
